Assay results from patent US3978225A, “Heterocyclic homoprostanoidal derivatives” (SmithKline Corporation, priority 1975, dated 1976).

How the values were obtained:
prostaglandin synthesis = assay: Inhibition of prostaglandin synthesis (arachidonic acid-dependent formation of adrenochrome from L-epinephrine); assay type: biochemical; details: for Inhibition of prostaglandin synthesis: 1000 μM; for IC50: read-out: ID50, inhibition of prostaglandin synthesis
Text: The prostaglandin synthesis inhibition method as employed is reported by Takeguchi and Sih, Prastaglandins, 2, 169, 1972. The principle entails the arachidonic acid-dependent formation of adrenochrome from L-epinephrine during prostaglandin biosynthesis. Indomethacin, phenylbutazone and aspirin were used as reference compounds.

[1] = tested on: diarrhea induced by prostaglandin E2 (PGE2); assay: Inhibition of PGE2 diarrhea in mice; assay type: in vivo; details: 15 minutes prior to i.p. PGE2
Experimental: The antagonism of diarrhea induced by prostaglandin E2 (PGE2) was determined by employing the modified standard animal pharmacological test procedure as reported in Intra Science Chem. Rept 6:1-9, 1972 and Annals of the New York Academy of Sciences 180:386-95, 1971. Briefly the test comprises administering the test compounds subcutaneously 15 minutes prior to an intraperitoneal injection of PGE2. Each animal is examined for diarrhea (which results after the administration of PGE2) every 15 minutes for one hour post-drug. Polyphloretin phosphate and 7 oxa-13-prostynoic acid, both well known antagonists of prostaglandin induced diarrhea, were employed as reference compounds. Results of tests conducted for the inhibition of PGE2 diarrhea in mice are disclosed in Table 2.

Molecule | Percent Change, Diarrhea Incidence ([1]; 5 mg/kg S.C.) | Percent Change, Diarrhea Incidence ([1]; 10 mg/kg S.C.) [%] | Percent Change, Diarrhea Incidence ([1]; 20 mg/kg S.C.) [%] | Percent Change, Diarrhea Incidence ([1]; 40 mg/kg S.C.) [%] | IC50 (prostaglandin synthesis) [µM] | other results
CCCCCCCC[C@@H]1OS(=O)O[C@H]1CCCCCCCC(=O)OC (relative stereo) [Compound C] | +15% | -31 | -54 | -8 | – | Inhibition of prostaglandin synthesis (prostaglandin synthesis): 20%
CCCCCCCC[C@@H]1SC(=S)S[C@H]1CCCCCCCC(=O)O (relative stereo) [Compound E, (8.xi.-trans)-10-thioxo-9,11-dithia-1a-homoprostan-1-oic acid] | – | – | – | – | 390 | –
CCCCCCCC[C@@H]1OCO[C@H]1CCCCCCCC(=O)O (relative stereo) [Compound F, (8.xi.-trans)-9,11-dioxa-1a-homoprostan-1-oic acid] | 0% | -36 | 0 | -14 | – | Inhibition of prostaglandin synthesis (prostaglandin synthesis): 30%
CCCCCCCC[C@@H]1OS(=O)O[C@@H]1CCCCCCCC(=O)OC (relative stereo) [Compound G, (8.xi.-cis)-10-oxo-9,11-dioxa-10-thia-1a-homoprostan-1-oic acid, methyl ester] | -14% | -29 | -57 | 0 | – | –
CCCCCCC#C[C@H]1CCC[C@@H]1OCCCCCC(=O)O [7-oxa-13-prostynoic acid, reference compound] | -100% | – | – | – | – | Percent Change, Diarrhea Incidence ([1]; 0.2 mg/kg S.C.): -15%; Percent Change, Diarrhea Incidence ([1]; 1 mg/kg S.C.): -100%
CC(=O)Oc1ccccc1C(=O)O [Aspirin, reference compound] | – | – | – | – | 3700 | –
COc1ccc2c(c1)c(CC(=O)O)c(C)n2C(=O)c1ccc(Cl)cc1 [Indomethacin, reference compound] | – | – | – | – | 2 | –
CCCCC1C(=O)N(c2ccccc2)N(c2ccccc2)C1=O [Phenylbutazone, reference compound] | – | – | – | – | 875 | –
polyphloretin phosphate [PPP, reference compound] | -4% | -26 | -36 | -65 | – | Percent Change, Diarrhea Incidence ([1]; 80 mg/kg S.C.): -68%
